Results as given in EP4417602A1, “SUBSTITUTED PYRAZOLE CARBOXAMIDES, SALTS THEREOF AND THEIR USE AS HERBICIDALLY ACTIVE SUBSTANCES” (Bayer AG, priority 2023, dated 2024).

Tests used:
ECHCG = assay: A. Herbicidal pre-emergence action on harmful plants (Tables A); type: in vivo, Echinochloa crus-galli; conditions: visual grading after ca. 3 weeks vs untreated controls, 100% = plants have died off, 0% = as control plants
From the text: (§1) Seeds of mono- and dicotyledonous weed plants were sown in plastic pots (double sowings with one species of mono- and one species of dicotyledonous weed plants per pot), in sandy loam, and covered with soil. The compounds according to the invention, formulated in the form of wettable powders (WP) or as emulsifiable concentrates (EC), were applied to the surface of the covering soil as aqueous suspension or emulsion, with the addition of 0.5% of an additive, at an application rate of 6001 of water per hectare (converted). Following treatment, the pots were placed in a greenhouse and kept under optimum growth conditions for the test plants. The visual grading of the damage to the test plants was carried out after ca. 3 weeks in comparison to untreated controls (herbicidal effect in percent (%): 100% effect = plants have died off, 0% effect = as control plants). Tables A1 to A12, below, show the effects of selected compounds of the general formula (I) according to table 1 on various harmful plants and an application rate corresponding to 1280 g/ha or below obtained by the experimental procedure mentioned above. Table A1: pre-emergence activity at 1280g/ha against ABUTH in %

LOLRI = assay: as above; type: in vivo, Lolium rigidum; conditions: application rate 1280 g/ha; visual grading after ca. 3 weeks vs untreated controls; 100% = plants have died off, 0% = as control plants
From the text: as §1

SETVI = assay: as above; type: in vivo, Setaria viridis; conditions: visual grading after ca. 3 weeks vs untreated controls, 100% = plants have died off, 0% = as control plants
From the text: as §1

POAAN [1] = assay: as above; type: in vivo, Poa annua
From the text: as §1

DIGSA = assay: as above; type: in vivo, Digitaria sanguinalis
From the text: as §1

POAAN [2] = assay: B. Herbicidal post-emergence action on harmful plants (Tables B); type: in vivo, Poa annua
Method: Seeds of mono- and dicotyledonous weed plants were placed in plastic pots in sandy loam soil (doubly sown with in each case one species of mono- or dicotyledonous weed plants per pot), covered with soil and cultivated in a greenhouse under controlled growth conditions. 2 to 3 weeks after sowing, the test plants were treated at the one-leaf stage. The compounds of the invention, formulated in the form of wettable powders (WP) or as emulsion concentrates (EC), were applied onto the green parts of the plants as aqueous suspension or emulsion with addition of 0.5% additive at a water application rate of 600 liters per hectare (converted). After the test plants had been kept in the greenhouse under optimum growth conditions for about 3 weeks, the activity of the preparations was rated visually in comparison to untreated controls. For example, 100% activity = the plants have died, 0% activity = like control plants. Tables B1 to B12, below, show the effects of selected compounds of the general formula (I) according to table 1 on various harmful plants and an application rate corresponding to 1280 g/ha or below obtained by the experimental procedure mentioned above. Table B1a: post-emergence activity at 1280g/ha against ABUTH in %

STEME = assay: A. Herbicidal pre-emergence action on harmful plants (Tables A); type: in vivo, Stellaria media; conditions: application rate 1280 g/ha; visual grading after ca. 3 weeks vs untreated controls; 100% = plants have died off, 0% = as control plants
From the text: as §1

MATIN = assay: as above; type: in vivo, Matricaria inodora; conditions: application rate 1280 g/ha; visual grading after ca. 3 weeks vs untreated controls; 100% = plants have died off, 0% = as control plants
From the text: as §1

ALOMY = assay: as above; type: in vivo, Alopecurus myosuroides; conditions: application rate 1280 g/ha; Table A9a
From the text: as §1

[3] = application rate 1280 g/ha, visual grading after ca. 3 weeks vs untreated controls, 100% = plants have died off, 0% = as control plants
[4] = application rate 320 g/ha, Table A12b
[5] = application rate 1280 g/ha, Table A12a
[6] = application rate 1280 g/ha, Table B7a
[7] = application rate 320 g/ha, Table A7b

COCc1c(C(=O)N2CCCC2Cc2ccc(F)cc2F)cnn1C (single isomer, unassigned) [Example I-119]
90%: pre-emergence activity against ECHCG (ECHCG; application rate 1280 g/ha) | pre-emergence activity against SETVI (SETVI; application rate 320 g/ha) | pre-emergence activity against DIGSA (DIGSA; [4]) | post-emergence activity against POAAN (POAAN [2]; [6])
100%: pre-emergence activity against LOLRI (LOLRI) | pre-emergence activity against SETVI (SETVI; application rate 1280 g/ha) | pre-emergence activity against POAAN (POAAN [1]; [3]) | pre-emergence activity against DIGSA (DIGSA; [5])

COCc1c(C(=O)N2CCCC2Cc2c(F)cccc2Cl)cnn1C (single isomer, unassigned) [Example I-190]
100%: pre-emergence activity against ECHCG (ECHCG; application rate 1280 g/ha) | pre-emergence activity against SETVI (SETVI; application rate 1280 g/ha) | pre-emergence activity against POAAN (POAAN [1]; [7]) | pre-emergence activity against POAAN (POAAN [1]; [3]) | pre-emergence activity against DIGSA (DIGSA; [4]) | pre-emergence activity against DIGSA (DIGSA; [5])
90%: pre-emergence activity against ECHCG (ECHCG; application rate 320 g/ha) | pre-emergence activity against LOLRI (LOLRI) | pre-emergence activity against STEME (STEME) | pre-emergence activity against POAAN (POAAN [1]; application rate 80 g/ha, Table A7c) | post-emergence activity against POAAN (POAAN [2]; [6])

COC(=O)c1nn(C)cc1C(=O)N1CCCC1Cc1ccc(F)cc1F (racemic) [Example I-096]
100%: pre-emergence activity against ECHCG (ECHCG; application rate 320 g/ha) | pre-emergence activity against ECHCG (ECHCG; application rate 1280 g/ha) | pre-emergence activity against STEME (STEME) | pre-emergence activity against POAAN (POAAN [1]; [7]) | pre-emergence activity against POAAN (POAAN [1]; [3]) | pre-emergence activity against DIGSA (DIGSA; [5]) | post-emergence activity against POAAN (POAAN [2]; application rate 320 g/ha, Table B7b) | post-emergence activity against POAAN (POAAN [2]; [6])

Cn1cc(C(=O)N2CCCC2Cc2ccccc2F)c(C2CCCO2)n1 (stereo not drawn) [Example I-011]
100%: pre-emergence activity against ECHCG (ECHCG; application rate 1280 g/ha) | pre-emergence activity against POAAN (POAAN [1]; [3]) | pre-emergence activity against DIGSA (DIGSA; [5])
90%: pre-emergence activity against LOLRI (LOLRI) | pre-emergence activity against STEME (STEME)

COCc1nn(C(C)C)cc1C(=O)N1CCCC1Cc1ccccc1F (racemic) [Example I-025]
100%: pre-emergence activity against POAAN (POAAN [1]; [7]) | pre-emergence activity against POAAN (POAAN [1]; [3]) | pre-emergence activity against DIGSA (DIGSA; [5])
90%: pre-emergence activity against ECHCG (ECHCG; application rate 1280 g/ha) | pre-emergence activity against LOLRI (LOLRI) | pre-emergence activity against MATIN (MATIN) | pre-emergence activity against SETVI (SETVI; application rate 1280 g/ha) | pre-emergence activity against DIGSA (DIGSA; [4])

COCc1nn(CC2OCCO2)cc1C(=O)N1CCCC1Cc1ccccc1F (racemic) [Example I-028]
100%: pre-emergence activity against POAAN (POAAN [1]; [3])
90%: pre-emergence activity against ECHCG (ECHCG; application rate 1280 g/ha) | pre-emergence activity against SETVI (SETVI; application rate 1280 g/ha) | pre-emergence activity against DIGSA (DIGSA; [5])

CCn1cc(C(=O)N2CCCC2Cc2ccccc2F)c(COC)n1 (racemic) [Example I-027]
90%: pre-emergence activity against ECHCG (ECHCG; application rate 320 g/ha) | pre-emergence activity against ECHCG (ECHCG; application rate 1280 g/ha) | pre-emergence activity against LOLRI (LOLRI) | pre-emergence activity against STEME (STEME) | pre-emergence activity against ALOMY (ALOMY) | pre-emergence activity against DIGSA (DIGSA; [4]) | pre-emergence activity against DIGSA (DIGSA; [5])
100%: pre-emergence activity against SETVI (SETVI; application rate 320 g/ha) | pre-emergence activity against SETVI (SETVI; application rate 1280 g/ha)

COCc1nn(CC2CC2)cc1C(=O)N1CCCC1Cc1ccccc1F (racemic) [Example I-026]
100%: pre-emergence activity against POAAN (POAAN [1]; [3]) | pre-emergence activity against DIGSA (DIGSA; [5])
90%: pre-emergence activity against ECHCG (ECHCG; application rate 1280 g/ha) | pre-emergence activity against SETVI (SETVI; application rate 1280 g/ha)
